The values below come from patent US4804668A, “Thiazole derivatives and medical compositions thereof” (Zenyaku Kogyo Kabushiki Kaisha, priority 1985, dated 1989).

SMILES strings stand for the structures.

In one data set the test system is isolated left atrium. The data set is described as follows: Effect on contractile force of isolated left atrium (electrically stimulated, Magnus's bath). Particulars: Corresponding Concentration 1 × 10^-4 (mol); isolated guinea pig left atrium, Krebs-Henseleit solution, stimulated at 0.5 cps, 5 msec, 20% above threshold. More on the design: species or system guinea pig (male Hartley, 7 weeks old). The procedure: (1) The contractile force of left atrium was tested according to the method described in Basic Lectures of Medicine Development, Volume V, Pharmacological Test Methods, Part 2, page 535 (1971). A 7-weeks-old male Hartley guinea pig (having a bodyweight of about 350 g) was killed by a blow on a head. The chest was opened and the heart was removed and placed in Krebs-Henseleit solution (prepared by adding distilled water to 6.92 g of sodium chloride, 0.35 g of calcium chloride, 0.29 g of magnesium sulfate, 0.16 g of mono-basic potassium phosphate, 2.1 g of sodium bicarbonate and 1.8 g of glucose so that the total amount was 1 l) which sufficiently bubbled with oxygen gas. Threads were tied to each tip of the left atrium. One thread was attached to a fixed pin in Magnus's bath and the other to a force-displacement transducer connected to an electric amplifier and recorder. The atrium was stimulated electrically at 0.5 cps, 5 msec and a voltage of 20% above threshold. The preparation is mounted in Krebs-Henseleit solution through which 95% oxygen gas and 5% carbon dioxide was blown. Then the samples were added.
Further, the above-mentioned tests were carried out by using following apparatuses.
Magnus's bath: supplied by Kabushiki Kaisha Natsume Seisakusho
Recorder: Model WI-680G supplied by Nippon Koden Kabushiki Kaisha
Force displacement transducer: supplied by Nippon Koden Kabushiki Kaisha
Electrical amplifier: Model AP-600G supplied by Nippon Koden Kabushiki Kaisha
Programmed electrosphygmonometer: supplied by Nippon Koden Kabushiki Kaisha

Data set [1] can be described thus: Acute toxicity (Litchfield-Wilcoxon method), intraperitoneal injection. More on the design: species or system mouse (6-weeks-old male ddY). The conditions noted are these: mouse, in vivo, ip, male ddY mice, 6 weeks old, 19-24 g. The procedure:
(2) The acute toxicity of the compound of the formula I was determined according to the Litchfield-Wilcoxon method, J. Pharm. Exp. Ther., 96, 99 (1949) using 6-weeks-old male ddY mice (having a bodyweight of 19-24 g) while administrating the sample compound in intraperitonial injection.

For orientation: LD50 means the dose at which mortality reaches 50%. Low values mean a more toxic substance, high ones a less toxic substance. Consider `Cc1nc(C(N)=O)sc1-c1ccncc1` [4-Methyl-5-(4-pyridinyl)-thiazole-2-carboxamide], for which the “Maximum Contractile Force” value in the data set on isolated left atrium is listed as 1,325 ± 132 mg. Also, the LD50 in data set [1] amounted to 230 mg/kg.
Turning to `COC(=O)c1nc(C)c(-c2ccncc2)s1` [Methyl 4-methyl-5-(4-pyridinyl)-thiazole-2-carboxylate], the “Maximum Contractile Force” value in the data set with isolated left atrium is reported as 446 ± 91 mg.
Regarding `Cc1nc(C#N)sc1-c1ccncc1` [R1 = --CN, R2 = --CH3, R3 = 4-pyridinyl, 2-cyano-4-methyl-5-(4-pyridinyl)-thiazole], the “Maximum Contractile Force” value in the data set with isolated left atrium came out at 558 ± 123 mg.
`CNC(=O)c1nc(C)c(-c2ccncc2)s1` [R1 = --CONHCH3, R2 = --CH3, R3, N,4-Dimethyl-5-(4-pyridinyl)-thiazole-2-carboxamide]: the “Maximum Contractile Force” value in the data set on isolated left atrium worked out at 510 ± 45 mg.
